Data taken from ChEMBL document CHEMBL1149978, “Synthesis of adamantane spiro sultones as potential antiviral agents” (Bioorg Med Chem Lett, 1992).
Active and inactive are the calls of the source.

Key:
Influenza B virus = experiment: Antiviral activity against influenza-B at concentrations up to 200 ug/mL; NA means Inactive; assay type: functional, organism-based
[1] = system: Human immunodeficiency virus 1; experiment: Antiviral activity against human immunodeficiency virus type 1 (HIV-1) at concentrations up to 200 ug/mL; NA means Inactive; assay type: functional, organism-based
[2] = system: Human immunodeficiency virus 2; experiment: Antiviral activity against human immunodeficiency virus type 2 (HIV-2) at concentrations up to 200 ug/mL; NA means Inactive; assay type: functional, organism-based
Human respirovirus 3 = experiment: Antiviral activity against parainfluenza-3 at concentrations up to 200 ug/mL; NA means Inactive; assay type: functional, organism-based
Influenza A virus = experiment: Antiviral activity against influenza-A at concentrations up to 200 ug/mL; NA means Inactive; assay type: functional, organism-based
[3] = Antiviral activity against measles at concentrations up to 200 ug/mL; NA means Inactive; assay type: functional
[4] = Antiviral activity against respiratory syncytial at concentrations up to 200 ug/mL; NA means Inactive; assay type: functional

Measured: Activity

NC1=CS(=O)(=O)OC12C1CC3CC(C1)CC2C3 (configuration not stated)
not listed: [3] | [4]
inactive: all other assays above

O=C1CS(=O)(=O)OC12C1CC3CC(C1)CC2C3 (configuration not stated)
inactive: all assays above
